Earlier results, collected in patent publication US11389398B2, “Gastroretentive treatment of nocturnal symptoms and morning akinesia in subjects with parkinson's disease” (priority 2019, dated 2022).
Like-named read-outs stand apart in the source and are kept apart here.

delay in the identification of circulating plasma levodopa levels after meals (controlled release tablets (Contin 1998)): 30 to 75 min
delay in the identification of circulating plasma levodopa levels after meals (immediate release tablets (Baruzzi 1987)): 29 to 60 min
Structure (SMILES): N[C@@H](Cc1ccc(O)c(O)c1)C(=O)O [levodopa, 3-hydroxy-L-Tyrosine]
